According to patent US10188743B2, “Cytisine-linked isoflavonoid antineoplastic agents for the treatment of cancer” (UNIVERSITY OF KENTUCKY RESEARCH FOUNDATION, priority 2016, dated 2019):

Columns and labels:
[1] = test system: AMPK; test: AMPK activation (levels of phosphorylated AMPK, Western blotting); format: cell-based
Method: (§1) Biochemistry. Western blotting: Cells were lysed in the appropriate volume of lysis buffer (50 mM HEPES, 100 mM NaCl, 2 mM EDTA, 1% glycerol, 50 mM NaF, 1 mM Na3VO4, 1% Triton X-100, with protease inhibitors). The following antibodies were used: HSD17B4 (GeneTex, GTX103864), AMPK (Cell Signaling, 2532), pAMPK (Cell Signaling, 2535), ACC (Cell Signaling, 3676), pACC (Cell Signaling, 11818), p^70 (Cell Signaling, 2708), p-p^70 (Cell Signaling, 9914), S6 (Cell Signaling, 2217), pS6 (Cell Signaling, 4858), MCCA (GeneTex, GTX110062), tubulin (Hybridoma Bank, E7), Actin (Sigma, A1978), His-tag (BD Pharmingen, 552564).

[2] = test system: acetyl CoA carboxylase (ACC); test: ACC phosphorylation / activation downstream of AMPK (Western blotting); format: cell-based
Method: as §1

[3] = test system: HSD17B4; test: Streptavidin-bead pull-down from LS174T cell lysates, validated by Western blot; format: binding
Method: (§2) Identification of the direct target of these AMPK activators involved incubation of 15d with LS174T cell lysates and a subsequent pull-down assay using biotinylated 15d bound to streptavidin beads. The binding proteins were eluted with 2.5 mM biotin and analyzed by 4-12% SDS-PAGE gel using colloidal blue staining (FIG. 2D). We identified two specific bands (F1 and F2) in the 15d-containing sample compared with the control samples containing only beads or only beads and biotin. These two bands were excised from gels and analyzed by NanoLC-ESI-MS/MS. The band F1 (FIG. 2D) contained two proteins: [1] peroxisomal hydroxysteroid 17-dehydrogenase-4 (HSD17B4); and [2] mitochondrial methylcrotonoyl-CoA carboxylase subunit alpha (MCCA). The band F2 also matched HSD17B4.
(§3) The multifunctional nature of HSD17B4 included two of the four enzymatic activities required for the beta-oxidation of very long-chain fatty acids (VLCFA) in the peroxisome. […] The HSD17B4 antibody (GeneTex) recognized the full-length and the C-terminal fragment (FIG. 2E).
(§4) Streptavidin-agarose pulldown: Biotinylated compound 15d (FIG. 2A) was incubated with cell lysates and streptavidin beads. The binding proteins were pulled down and analyzed by 4-12% SDS-PAGE as described previously. […]

[4] = biological target: T1, MCCA (Homo sapiens, UniProt Q96RQ3); test: as above; format: binding
T1 construct: endogenous in cells; host or cells: LS174T colon cancer cells
T1 sequence (Q96RQ3 42-725): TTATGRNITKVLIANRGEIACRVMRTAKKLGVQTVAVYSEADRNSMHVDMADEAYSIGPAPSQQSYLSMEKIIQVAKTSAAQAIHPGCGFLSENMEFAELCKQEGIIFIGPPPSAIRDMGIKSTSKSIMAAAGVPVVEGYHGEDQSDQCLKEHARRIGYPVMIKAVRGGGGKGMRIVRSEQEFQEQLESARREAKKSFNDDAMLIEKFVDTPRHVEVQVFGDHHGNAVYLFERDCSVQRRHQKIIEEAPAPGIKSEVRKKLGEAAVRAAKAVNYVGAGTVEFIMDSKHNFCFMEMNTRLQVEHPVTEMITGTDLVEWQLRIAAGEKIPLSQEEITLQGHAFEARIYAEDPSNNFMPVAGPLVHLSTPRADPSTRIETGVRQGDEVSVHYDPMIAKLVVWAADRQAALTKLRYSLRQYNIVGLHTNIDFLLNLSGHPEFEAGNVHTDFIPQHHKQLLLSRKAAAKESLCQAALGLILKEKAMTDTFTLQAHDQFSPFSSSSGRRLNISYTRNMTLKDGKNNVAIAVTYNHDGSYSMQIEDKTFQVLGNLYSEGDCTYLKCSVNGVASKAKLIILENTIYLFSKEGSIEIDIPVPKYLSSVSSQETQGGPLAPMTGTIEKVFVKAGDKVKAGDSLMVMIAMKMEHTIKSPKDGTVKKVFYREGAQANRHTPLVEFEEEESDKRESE
Method: as §2, §3, §4

[5] = biological target: T2, HSD17B4 (full-length and truncated constructs) (Homo sapiens, UniProt P51659); test: Streptavidin bead-based pull-down with purified full-length and truncated HSD17B4 constructs; format: binding; settings: purified protein from E. coli
T2 construct: His-tag; made in house; host or cells: E. coli BL21 (pET28)
T2 sequence (P51659 1-736): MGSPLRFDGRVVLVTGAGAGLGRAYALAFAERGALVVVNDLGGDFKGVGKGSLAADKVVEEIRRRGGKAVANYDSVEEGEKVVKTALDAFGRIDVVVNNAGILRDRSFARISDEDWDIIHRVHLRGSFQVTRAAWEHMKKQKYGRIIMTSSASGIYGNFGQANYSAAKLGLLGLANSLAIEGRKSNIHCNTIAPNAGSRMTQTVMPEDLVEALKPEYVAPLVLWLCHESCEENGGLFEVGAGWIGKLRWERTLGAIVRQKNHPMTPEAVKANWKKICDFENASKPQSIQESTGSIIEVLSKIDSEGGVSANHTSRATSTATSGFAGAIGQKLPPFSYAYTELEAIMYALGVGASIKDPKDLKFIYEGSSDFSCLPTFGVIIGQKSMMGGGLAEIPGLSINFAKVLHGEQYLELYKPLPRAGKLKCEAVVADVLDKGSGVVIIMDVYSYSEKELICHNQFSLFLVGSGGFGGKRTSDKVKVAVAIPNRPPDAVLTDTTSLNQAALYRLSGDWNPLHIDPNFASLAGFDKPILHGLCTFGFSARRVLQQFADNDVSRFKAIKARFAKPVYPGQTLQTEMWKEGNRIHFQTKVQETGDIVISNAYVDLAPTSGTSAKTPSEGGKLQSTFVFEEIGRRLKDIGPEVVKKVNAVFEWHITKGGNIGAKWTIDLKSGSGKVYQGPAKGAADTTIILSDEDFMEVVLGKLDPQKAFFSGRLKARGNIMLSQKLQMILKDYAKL
Description: (§5) We next sought to delineate if these cystisine-linked isoflavonoid inhibitors were selective for one of the two enzymatic activities, either the α,β-dehydrogenase or hydratase activity, found in HSD17B4. We generated a panel of truncated HSD17B4 constructs and purified these truncated proteins as well as the full-length protein from E. coli (FIG. 3A). We evaluated the binding of 15d to these constructs using the streptavidin bead-based pull-down assay.
(§6) Streptavidin-agarose pulldown: Biotinylated compound 15d (FIG. 2A) was incubated with cell lysates and streptavidin beads. The binding proteins were pulled down and analyzed by 4-12% SDS-PAGE as described previously. The protein bands were identified by NanoLC-ESI-MS/MS at ProtTech Inc. For binding and enzymatic assays, His-tagged HSD17B4 constructs were clone and truncated by PCR using pET28. The full-length and truncated proteins were purified from bacteria BL21.

[6] = test system: HSD17B4 (full-length and truncated constructs); test: as above; format: binding; settings: purified protein from E. coli
Description: as §5, §6

melting point | SMILES | AMPK-fold Activation (10 μM) [1] | AMPK activation (in words) [1] | further results
 | COc1ccc(-c2coc3cc(OCCN4C[C@@H]5C[C@H](C4)c4cccc(=O)n4C5)ccc3c2=O)cc1 [Compound 10b, (1R,5S)-3-(2-((3-(4-Methoxyphenyl)-4-oxo-4H-chromen-7-yl)oxy)ethyl)-3,4,5,6-tetrahydro-1H-1,5-methanopyrido[1,2-a][1,5]diazocin-8(2H)-one] | 9.9 fold |  | 
 | Cc1oc2cc(OCCCCC(CN3C[C@@H]4C[C@@H](C3)c3cccc(=O)n3C4)=NNC(=O)CCOCCOCCOCCOCCNC(=O)CCCC[C@@H]3SCC4NC(=O)NC43)ccc2c(=O)c1-c1ccc(Cl)cc1 (stereo partly drawn) [Compound 15d, N-(22-((3-(4-chlorophenyl)-2-methyl-4-oxo-4H-chromen-7-yl)oxy)-15-oxo-18-(((1S,5S)-8-oxo-1,5,6,8-tetrahydro-2H-1,5-methanopyrido[1,2-a][,5]diazocin-3(4H)-yl)methyl)-3,6,9,12-tetraoxa-16,17-diazadocos-17-en-1-yl)-5-((4S)-2-oxohexahydro-1H-thieno[3,4-d]imidazol-4-yl)pentanamide] |  |  | binding of HSD17B4 in pull-down [3]: specific binding protein; binding of MCCA in pull-down [4]: non-specific binding protein; interaction with full-length HSD17B4 [5]: interacted; binding to N-terminus-truncated fragment C919 [6]: strongly bound; interaction with C-terminus-truncated fragment N634 [6]: not the C-terminus-truncated fragments N318 and N634, interacted
 | O=C(CCCCOc1ccccc1)CN1C[C@@H]2C[C@@H](C1)c1cccc(=O)n1C2 [Compound 17, (1S,5S)-3-(2-oxo-6-phenoxyhexyl)-3,4,5,6-tetrahydro-1H-1,5-methanopyrido[1,2-a][1,5]diazocin-8(2H)-one] |  | inactive | 
 | O=c1cccc2n1C[C@H]1C[C@H]2CN(CC(O)CCCCOc2ccccc2)C1 (stereo partly drawn) [Compound 16, (1S,5S)-3-(2-Hydroxy-6-phenoxyhexyl)-3,4,5,6-tetrabydro-1H-1,5-methanopyrido[1,2-a][1,5]diazocin-8(2H)-one] |  | inactive | 
186 to 187 °C | Cc1oc2cc(OCCN3C[C@@H]4C[C@H](C3)c3cccc(=O)n3C4)ccc2c(=O)c1-c1ccc(Cl)cc1 [Compound 10d, (1R,5S)-3-(2-((3-(4-Chlorophenyl)-2-methyl-4-oxo-4H-chromen-7-yl)oxy)ethyl)-3,4,5,6-tetrahydro-1H-1,5-methanopyrido[1,2-a][1,5]diazocin-8(2H)-one] | 2.2 fold |  | 
197 to 198 °C | O=c1c(-c2ccccc2)coc2cc(OCCN3C[C@@H]4C[C@H](C3)c3cccc(=O)n3C4)ccc12 [Compound 10a, (1R,5S)-3-(2-((4-Oxo-3-phenyl-4H-chromen-7-yl)oxy)ethyl)-3,4,5,6-tetrahydro-1H-1,5-methanopyrido[1,2-a][1,5]diazocin-8(2H)-one] | 3.6 fold |  | 
 | O=c1c(-c2ccc(Cl)cc2)coc2cc(O)ccc12 [Compound 3c, 3-(4-Chlorophenyl)-7-hydroxy-4H-chromen-4-one] |  | most active AMPK activators | activation of acetyl CoA carboxylase [2]: modest activation

SMILES | melting point | AMPK-fold Activation (10 μM) [1] | AMPK activation (in words) [1] | further results
Cc1oc2cc(O)ccc2c(=O)c1-c1ccc(Cl)cc1 [Compound 3d, 3-(4-Chlorophenyl)-7-hydroxy-2-methyl-4H-chromen-4-one] | 277 to 278 °C |  | most active AMPK activators | activation of acetyl CoA carboxylase [2]: modest activation
